Earlier results, collected in patent US20050064019A1, “Impregnated, flexible, rawhide pet chews containing antimicrobially active chlorhexdine” (priority 2003, published 2005).

Columns and labels:
bacterial spores = settings: except at elevated temperatures
[1] = rat, in vivo
[2] = two years continuous use

For `[H]/N=C(\N/C(=N/[H])NCCCCCCNC(=N)NC(=N)Nc1ccc(Cl)cc1)Nc1ccc(Cl)cc1` [chlorhexidine], the Solubility in water is given as “practically insoluble in water”, the “Activity against bacterial spores” value (bacterial spores) is given as “inactive” and the “Tolerance of chlorhexidine in drinking water” value [1] is given as “without detectable interference with growth and reproduction”. The “Activity against fungal spores” value (fungal spores) was “inactive” and the “Side effects in long term trials” value [2] was “no systemic or serious local side effects”.
